What was measured:
[1] = Cytotoxicity against BESM cells after 88 hrs by HTS assay; assay type: ADME, cell-based; settings: Bos taurus
Trypanosoma cruzi = assay: Antitrypanosomal activity against Trypanosoma cruzi amastigotes infected in BESM cells measured after 88 hrs postinfection by HTS assay; assay type: functional, organism-based
[2] = Selectivity window, ratio of EC50 for BESM cells to EC50 for Trypanosoma cruzi amastigotes infected in BESM cells; design: reference not given here

Structure (SMILES)	EC50 [1]	EC50 (Trypanosoma cruzi)	Ratio EC50 [2]
COc1cc(N)[nH]c2nc(-c3ccc(F)cc3)c(-c3ccncc3)c1-2	> 50 µM	5 µM	>10
Cc1c(C)c2c(c(C)c1O)CCC(C)(CN1CCN(c3cc(N4CCCC4)nc(N4CCCC4)n3)CC1)O2 (stereo not drawn)	> 50 µM	17 µM	>2.9
CCCCCCCCCCCCC/C=C/[C@@H](O)[C@H](CO)NC(=O)CCCCCCC	11 µM	13 µM	0.8
Cc1c(O)cccc1C(=O)N[C@@H](CSc1ccccc1)[C@H](O)CN1C[C@H]2CCCC[C@H]2C[C@H]1C(=O)NC(C)(C)C	32 µM	12 µM	2.7
O=C(Nc1ccc(Cl)c(Cl)c1)c1cc(Cl)cc(Cl)c1O [3,3',4',5-TETRACHLOROSALICYLANILIDE]	26 µM	8 µM	3.3
CC[C@H](C)[C@H]1O[C@]2(C=C[C@@H]1C)C[C@@H]1C[C@@H](C/C=C(\C)[C@@H](O[C@H]3C[C@H](OC)[C@@H](O[C@H]4C[C@H](OC)[C@@H](O)[C@H](C)O4)[C@H](C)O3)[C@@H](C)/C=C/C=C3\CO[C@@H]4[C@H](O)C(C)=C[C@@H](C(=O)O1)[C@]34O)O2.CO[C@H]1C[C@H](O[C@H]2[C@H](C)O[C@@H](O[C@@H]3/C(C)=C/C[C@@H]4C[C@@H](C[C@]5(C=C[C@H](C)[C@@H](C(C)C)O5)O4)OC(=O)[C@@H]4C=C(C)[C@@H](O)[C@H]5OC/C(=C\C=C\[C@@H]3C)[C@]54O)C[C@@H]2OC)O[C@@H](C)[C@@H]1O [ABAMECTIN]	12 µM	4 µM	3
Cc1ccc(/N=C/N(C)/C=N/c2ccc(C)cc2C)c(C)c1 [AMITRAZ]	33 µM	16 µM	2.1
CN(C)CCC=C1c2ccccc2CCc2ccccc21 [AMITRIPTYLINE]	23 µM	12 µM	1.9
CN1CCCC(n2nc(Cc3ccc(Cl)cc3)c3ccccc3c2=O)CC1 (stereo not drawn) [AZELASTINE]	49 µM	1 µM	49
CN1[C@@H]2CC[C@H]1C[C@@H](OC(c1ccccc1)c1ccccc1)C2 [BENZTROPINE]	46 µM	17 µM	2.7
c1ccc(Cn2ccnc2)cc1 [BENZYLIMIDAZOLE]	> 50 µM	35 µM	>1.4
Cc1cc2c(OCC(CNC(C)(C)C)OC(=O)c3ccccc3)cccc2[nH]1 (stereo not drawn) [BOPINDOLOL]	> 50 µM	40 µM	>1.3
COc1ccccc1OCCNCC(O)COc1cccc2[nH]c3ccccc3c12 (stereo not drawn) [CARVEDILOL]	31 µM	8 µM	3.9
CCC(=O)O[C@]1(C(=O)CCl)[C@@H](C)C[C@H]2[C@@H]3CCC4=CC(=O)C=C[C@]4(C)[C@@]3(F)[C@@H](O)C[C@@]21C [CLOBETASOL PROPIONATE]	41 µM	25 µM	1.6
CN(C)CCCN1c2ccccc2CCc2ccc(Cl)cc21 [CLOMIPRAMINE]	> 50 µM	8 µM	>6.3
C[C@@H]1C[C@@H]([C@H](O)CC2CC(=O)NC(=O)C2)C(=O)[C@@H](C)C1 [CYCLOHEXIMIDE]	> 50 µM	< 0.4 µM	>125
CC(=O)O[C@]1(C(C)=O)CC[C@H]2[C@@H]3C=C(Cl)C4=CC(=O)[C@@H]5C[C@@H]5[C@]4(C)[C@H]3CC[C@@]21C [CYPROTERONE ACETATE]	> 50 µM	32 µM	>1.6
CC(C)[C@@]1(NC(=O)[C@@H]2C[C@@H]3c4cccc5[nH]cc(c45)C[C@H]3N(C)C2)O[C@@]2(O)[C@@H]3CCCN3C(=O)[C@H](Cc3ccccc3)N2C1=O.CS(=O)(=O)O [DIHYDROERGOCRISTINE MESYLATE]	47 µM	5 µM	9.4

Structure (SMILES)	EC50 [1]	EC50 (Trypanosoma cruzi)	Ratio EC50 [2]
CC(=O)O[C@@]12CO[C@@H]1C[C@H](O)[C@@]1(C)C(=O)[C@H](O)C3=C(C)[C@@H](OC(=O)[C@H](O)[C@@H](NC(=O)OC(C)(C)C)c4ccccc4)C[C@@](O)([C@@H](OC(=O)c4ccccc4)[C@H]21)C3(C)C.O.O.O [DOCETAXEL]	44 µM	< 0.8 µM	>56
COc1cc2nc(N3CCN(C(=O)C4COc5ccccc5O4)CC3)nc(N)c2cc1OC (stereo not drawn) [DOXAZOSIN]	27 µM	12 µM	2.3
CCCCOc1ccc(C(=O)CCN2CCCCC2)cc1.Cl [DYCLONINE HYDROCHLORIDE]	36 µM	15 µM	2.4
CC(C)[C@H]1C(=O)N2CCC[C@H]2[C@]2(O)O[C@](NC(=O)[C@@H]3C=C4c5cccc6[nH]cc(c56)C[C@H]4N(C)C3)(C(C)C)C(=O)N12 [ERGOCORNINE]	43 µM	18 µM	2.4
CNCCC(Oc1ccc(C(F)(F)F)cc1)c1ccccc1 (stereo not drawn) [FLUOXETINE]	16 µM	7 µM	2.3
OCCN1CCN(CCCN2c3ccccc3Sc3ccc(C(F)(F)F)cc32)CC1 [FLUPHENAZINE]	21 µM	4 µM	5.3
O=C1OCCN1/N=C/c1ccc([N+](=O)[O-])o1 [FURAZOLIDONE]	> 50 µM	< 0.4 µM	>125
C[C@H]([C@](O)(Cn1cncn1)c1ccc(F)cc1F)S(C)(=O)=O [GENACONAZOLE]	> 50 µM	18 µM	>2.8
O=C(CCCN1CCC(O)(c2ccc(Cl)cc2)CC1)c1ccc(F)cc1 [HALOPERIDOL]	33 µM	7 µM	4.7
CN1CCCN(C(c2ccccc2)c2ccc(Cl)cc2)CC1 (stereo not drawn) [HOMOCHLORCYCLIZINE]	13 µM	12 µM	1.1
Cc1ccc(NC(=O)c2ccc(CN3CCN(C)CC3)cc2)cc1Nc1nccc(-c2cccnc2)n1 [IMATINIB]	32 µM	9 µM	3.6
C=C(C)[C@H]1CN[C@H](C(=O)O)[C@H]1CC(=O)O [KAINIC ACID]	13 µM	3 µM	4.3
COc1ccc(CN2CCN(C(c3ccc(F)cc3)c3ccc(F)cc3)CC2)c(OC)c1OC [LOMERIZINE]	22 µM	9 µM	2.4
CN(C)C(=O)C(CCN1CCC(O)(c2ccc(Cl)cc2)CC1)(c1ccccc1)c1ccccc1 [LOPERAMIDE]	12 µM	3 µM	4
CCOC(=O)N1CCC(=C2c3ccc(Cl)cc3CCc3cccnc32)CC1 [LORATADINE]	17 µM	9 µM	1.9
CN1C[C@H](CNC(=O)OCc2ccccc2)C[C@@H]2c3cccc4c3c(cn4C)C[C@H]21 [METERGOLINE]	18 µM	4 µM	4.5
COc1c(C)c2c(c(O)c1C/C=C(\C)CCC(=O)OCCN1CCOCC1)C(=O)OC2 [MYCOPHENOLATE MOFETIL]	> 50 µM	7 µM	>7.1
CCN(CC)CCOCCC1=CCC2CC1C2(C)C (stereo not drawn) [MYRTECAINE]	24 µM	14 µM	1.7

Source: ChEMBL document CHEMBL1629460, “Image-based high-throughput drug screening targeting the intracellular stage of Trypanosoma cruzi, the agent of Chagas' disease” (Antimicrob Agents Chemother, 2010)
